The assay concerns IFN-γ producing T cells. The experiment in a line: IFN-γ secretion (ELISA) of blood cells from mice vaccinated with TB10.4 antigens, stimulated with TB10.4 peptides. In kind it is in vivo. The note with it: for specific T-cell response (IFN-γ secretion, ELISA) after vaccination with the individual peptide: mice vaccinated three times with individual TB10.4 peptide in DDA/TDB, cells stimulated with 0.5 μg/ml of the same peptide.

For the molecule “TB10.4-P1: amino acids 1 to 18 of SEQ ID NO: 2 (MSQIMYNYPAMLGHAGDM; listed as Mycobacterium tuberculosis)”, the “specific T-cell response (IFN-γ secretion, ELISA) after vaccination with the individual peptide” value was “induced a specific T-cell response”.

Consider “TB10.4-P3: amino acids 21 to 38 of SEQ ID NO: 2 (YAGTLQSLGAEIAVEQAA; listed as Mycobacterium tuberculosis)”, for which the “specific T-cell response (IFN-γ secretion, ELISA) after vaccination with the individual peptide” value is given as “induced a specific T-cell response”.

B1: TB10.4: protein expressed by M. tuberculosis, recombinant (SEQ ID NO: 2) (protein, listed as Mycobacterium tuberculosis)
chain: MSQIMYNYPAMLGHAGDMAGYAGTLQSLGAEIAVEQAALQSAWQGDTGITYQAWQAQWNQAMEDLVRAYHAMSSTHEANTMAMMARDTAEAAKWGGX
modifications: X not resolved here
With B1, the “T-cell recognition of TB10.4 peptides P1-P9 (IFN-γ secretion, ELISA) after vaccination” value (mice vaccinated 3 times at 2-week intervals in DDA/TDB, blood cells two weeks after final vaccination, stimulated with 0.5 μg/ml of individual peptides) was “mainly induced P3 specific T cells”.

Source of the values: patent US20080008724A1 (Statens Serum Institute, priority 2006, published 2008).
